Reference: patent US7786113B2, “Heterocyclic carbamate derivatives, their manufacture and use as pharmaceutical agents” (Hoffman-La Roche Inc., priority 2004, dated 2010)

Columns and labels:
Src (p60^c-src) = biological target: T1, Src (p60^c-src) (Homo sapiens, UniProt P12931); test: SRC-Inhibitor-Assay (time-resolved fluorescence kinase assay), Src; format: biochemical; settings: ATP 5 μM, peptide 10 μM, enzyme 2.5 U/ml, pH 7.3
T1 construct: purchased UBI, Upstate Biotech, Inc
Excerpt: (§1) The activity of the compounds according to this invention as inhibitors for the src-family tyrosine kinases was shown by using the following assay.
(§2) ATP, Tween™ 20, 4-(2-hydroxyethyl)-1-piperazineethanesulfonic acid (HEPES) were purchased from Roche Molecular Biochemicals, MgCl2 and MnCl2 were purchased from Merck Eurolab, Tris(2-carboxyethyl)phosphine hydrochloride (TCEP) was purchased from Pierce, 384 Well low volume fluorescence plates was purchased from Falcon.
(§3) At first the enzyme is pre-incubated for 15 min. at 15° C. in aqueous solution with corresponding amounts of inhibitors according to this invention. Then the phosphorylation reaction is started by adding a reaction mixture, containing ATP, Peptide and PT66, and subsequent shaking. The proceeding of this reaction is immediately monitored using time resolved fluorescence spectroscopy in a suitable well plate reader.
(§4) The IC50-values can be obtained from the reaction rates by using a non-linear curve fit (XLfit software (ID Business Solution Ltd., Guilford, Surrey, UK))

Lck (p56^lck) = biological target: T2, Lck (p56^lck) (Homo sapiens, UniProt P06239); test: SRC-Inhibitor-Assay (time-resolved fluorescence kinase assay), Lck; format: biochemical; settings: ATP 5 μM, peptide 10 μM, enzyme 2.5 U/ml, pH 7.3
T2 construct: purchased UBI, Upstate Biotech, Inc
T2 sequence (P06239 whole entry): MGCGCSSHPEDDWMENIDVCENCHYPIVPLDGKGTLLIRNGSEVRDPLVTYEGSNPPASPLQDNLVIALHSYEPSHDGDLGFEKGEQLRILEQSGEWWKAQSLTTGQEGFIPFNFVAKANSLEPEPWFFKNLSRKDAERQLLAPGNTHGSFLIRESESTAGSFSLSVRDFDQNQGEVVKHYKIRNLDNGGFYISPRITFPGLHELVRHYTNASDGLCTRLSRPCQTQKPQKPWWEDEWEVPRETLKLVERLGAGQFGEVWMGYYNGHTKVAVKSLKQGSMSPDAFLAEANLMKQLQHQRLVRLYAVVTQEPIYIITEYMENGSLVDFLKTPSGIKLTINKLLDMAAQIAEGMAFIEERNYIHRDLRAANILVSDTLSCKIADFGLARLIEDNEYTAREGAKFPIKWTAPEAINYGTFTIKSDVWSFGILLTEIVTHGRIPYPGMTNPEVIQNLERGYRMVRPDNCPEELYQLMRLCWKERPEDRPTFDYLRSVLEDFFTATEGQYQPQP
Excerpt: as §1, §2, §3, §4

T1 sequence (P12931 whole entry): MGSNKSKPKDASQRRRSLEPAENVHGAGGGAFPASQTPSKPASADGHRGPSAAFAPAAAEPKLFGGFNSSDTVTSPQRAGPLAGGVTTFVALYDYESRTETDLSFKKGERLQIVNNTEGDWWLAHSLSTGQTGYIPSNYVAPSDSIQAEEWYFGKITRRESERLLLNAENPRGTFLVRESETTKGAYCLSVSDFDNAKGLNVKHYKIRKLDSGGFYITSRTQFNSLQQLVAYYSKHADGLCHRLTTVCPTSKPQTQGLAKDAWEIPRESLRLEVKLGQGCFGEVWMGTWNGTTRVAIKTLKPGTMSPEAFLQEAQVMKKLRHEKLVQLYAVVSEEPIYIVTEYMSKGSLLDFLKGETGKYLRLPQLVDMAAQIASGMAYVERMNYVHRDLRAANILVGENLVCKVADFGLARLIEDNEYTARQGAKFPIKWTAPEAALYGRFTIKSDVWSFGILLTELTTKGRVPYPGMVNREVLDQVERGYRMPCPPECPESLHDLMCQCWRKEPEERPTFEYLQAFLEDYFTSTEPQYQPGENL

Structure (SMILES)	IC50 (Src (p60^c-src)) [nM]	IC50 (Lck (p56^lck)) [nM]
CC(C)C(C)OC(=O)Nc1cnc2[nH]c(-c3ccccc3)nc2c1 (centres unmarked) [Example 1-19, (2-Phenyl-3H-imidazo[4,5-b]pyridin-6-yl)-carbamic acid 1,2-dimethyl-propyl ester]	500 to 1500	2000 to 9000
CC(C)OC(=O)Nc1cnc2[nH]c(-c3ccc(N4CCOCC4)cc3)nc2c1 [Example 2-5, [2-(4-Morpholin-4-yl-phenyl)-3H-imidazo[4,5-b]pyridin-6-yl]-carbamic acid isopropyl ester]	10 to 500	100 to 9000
CC(=O)Nc1ccc(-c2cc3cc(NC(=O)OCC(C)(C)C)cnc3[nH]2)cc1 [Example 9-25, [2-(4-Acetylamino-phenyl)-1H-pyrrolo[2,3-b]pyridin-5-yl]-carbamic acid 2,2-dimethyl-propyl ester]	10 to 500	100 to 9000
CCN(CC)CCOc1ccc(-c2nc3cc(NC(=O)OC(C)C)cnc3[nH]2)cc1 [Example 2-1, {2-[4-(2-Diethylamino-ethoxy)-phenyl]-3H-imidazo[4,5-b]pyridin-6-yl}-carbamic acid isopropyl ester]	10 to 500	100 to 9000
CCOC(=O)Nc1cnc2[nH]c(-c3ccc(OCCOC)cc3)cc2c1 [Example 9-4, {2-[4-(2-Methoxy-ethoxy)-phenyl]-1H-pyrrolo[2,3-b]pyridin-5-yl}-carbamic acid ethyl ester]	10 to 500	100 to 9000
COCCN(CCOC)c1ccc(-c2nc3cc(NC(=O)OC(C)C)cnc3[nH]2)cc1F [Example 10-2, (2-{4-[Bis-(2-methoxy-ethyl)-amino]-3-fluoro-phenyl}-3H-imidazo[4,5-b]pyridin-6-yl)-carbamic acid isopropyl ester]	10 to 500	100 to 9000
CC(OC(=O)Nc1cnc2[nH]c(-c3ccccc3)nc2c1)c1ccccc1 (centres unmarked) [Example 1-13, (2-Phenyl-3H-imidazo[4,5-b]pyridin-6-yl)-carbamic acid 1-phenyl-ethyl ester]	10 to 500	100 to 9000
Cc1cc(-c2nc3cc(NC(=O)OC(C)C)cnc3[nH]2)ccn1 [Example 3-1, [2-(2-Methyl-pyridin-4-yl)-3H-imidazo[4,5-b]pyridin-6-yl]-carbamic acid isopropyl ester]	10 to 500	100 to 9000
CC(C)OC(=O)Nc1cnc2[nH]c(-c3ccc([N+](=O)[O-])cc3)nc2c1 [Example 3-4, [2-(4-Nitro-phenyl)-3H-imidazo[4,5-b]pyridin-6-yl]-carbamic acid isopropyl ester]	10 to 500	100 to 9000
CC(=O)Nc1cccc(-c2cc3cc(NC(=O)OCC(C)C)cnc3[nH]2)c1 [Example 9-28, [2-(3-Acetylamino-phenyl)-1H-pyrrolo[2,3-b]pyridin-5-yl]-carbamic acid isobutyl ester]	10 to 500	100 to 9000
C#CC(C)OC(=O)Nc1cnc2[nH]c(-c3ccccc3)nc2c1 (centres unmarked) [Example 1-15, (2-Phenyl-3H-imidazo[4,5-b]pyridin-6-yl)-carbamic acid 1-methyl-prop-2-ynyl ester]	10 to 500	100 to 9000
CC(C)OC(=O)Nc1cnc2[nH]c(-c3cccc([N+](=O)[O-])c3)nc2c1 [Example 2-4, [2-(3-Nitro-phenyl)-3H-imidazo[4,5-b]pyridin-6-yl]-carbamic acid isopropyl ester]	185	1340
COCCCNC(=O)c1cccc(-c2nc3cc(NC(=O)OC(C)C)cnc3[nH]2)c1 [Example 11-3, {2-[3-(3-Methoxy-propylcarbamoyl)-phenyl]-3H-imidazo[4,5-b]pyridin-6-yl}-carbamic acid isopropyl ester]	10 to 500	100 to 9000
CC(OC(=O)Nc1cnc2[nH]c(-c3ccccc3)nc2c1)C(F)(F)F (centres unmarked) [Example 1-11, (2-Phenyl-3H-imidazo[4,5-b]pyridin-6-yl)-carbamic acid 2,2,2-trifluoro-1-methyl-ethyl ester]	228	5000 to 10000
CC(C)OC(=O)Nc1cnc2[nH]c(-c3ccc(F)c(F)c3)nc2c1 [Example 10-1, [2-(3,4-Difluoro-phenyl)-3H-imidazo[4,5-b]pyridin-6-yl]-carbamic acid isopropyl ester]	10 to 500	100 to 9000
C=CC(C)OC(=O)Nc1cnc2[nH]c(-c3ccccc3)nc2c1 (centres unmarked) [Example 1-1, (2-Phenyl-3H-imidazo[4,5-b]pyridin-6-yl)-carbamic acid 1-methyl-allyl ester]	10 to 500	100 to 9000
CC(C)OC(=O)Nc1cnc2nc(-c3ccccc3)[nH]c2c1 [Example 1-2, (2-Phenyl-1H-imidazo[4,5-b]pyridin-6-yl)-carbamic acid isopropyl ester]	10 to 500	100 to 9000

Structure (SMILES)	IC50 (Src (p60^c-src)) [nM]	IC50 (Lck (p56^lck)) [nM]
CC(C)OC(=O)Nc1cnc2[nH]c(-c3ccccc3)cc2c1 [Example 9-1, (2-Phenyl-1H-pyrrolo[2,3-b]pyridin-5-yl)-carbamic acid isopropyl ester]	10 to 500	100 to 9000
CC(C)OC(=O)Nc1cnc2[nH]c(-c3ccc([S+](C)[O-])cc3)nc2c1 (centres unmarked) [Example 8-4, [2-(4-Methanesulfinyl-phenyl)-3H-imidazo[4,5-b]pyridin-6-yl]-carbamic acid isopropyl ester]	10 to 500	100 to 9000
COCCOc1ccc(-c2cc3cc(NC(=O)OC(C)C)cnc3[nH]2)cc1 [Example 9-17, {2-[4-(2-Methoxy-ethoxy)-phenyl]-1H-pyrrolo[2,3-b]pyridin-5-yl}-carbamic acid isopropyl ester]	10 to 500	100 to 9000
CC(C)OC(=O)Nc1cnc2[nH]c(-c3cccc(NS(C)(=O)=O)c3)nc2c1 [Example 7-1, [2-(3-Methanesulfonylamino-phenyl)-3H-imidazo[4,5-b]pyridin-6-yl]-carbamic acid isopropyl ester]	10 to 500	100 to 9000
CC(C)OC(=O)Nc1cnc2[nH]c(-c3ccc(N4CCN(C)CC4)cc3)nc2c1 [Example 2-8, {2-[4-(4-Methyl-piperazin-1-yl)-phenyl]-3H-imidazo[4,5-b]pyridin-6-yl}-carbamic acid isopropyl ester]	10 to 500	100 to 9000
CC(C)OC(=O)Nc1cnc2[nH]c(-c3cccc(CCO)c3)nc2c1 [Example 2-9, {2-[3-(2-Hydroxy-ethyl)-phenyl]-3H-imidazo[4,5-b]pyridin-6-yl}-carbamic acid isopropyl ester]	10 to 500	100 to 9000
C=CCOC(=O)Nc1cnc2[nH]c(-c3ccc(OCCOC)cc3)cc2c1 [Example 9-5, {2-[4-(2-Methoxy-ethoxy)-phenyl]-1H-pyrrolo[2,3-b]pyridin-5-yl}-carbamic acid allyl ester]	10 to 500	100 to 9000
CC#CC(C)OC(=O)Nc1cnc2[nH]c(-c3ccccc3)nc2c1 (centres unmarked) [Example 1-16, (2-Phenyl-3H-imidazo[4,5-b]pyridin-6-yl)-carbamic acid 1-methyl-but-2-ynyl ester]	10 to 500	100 to 9000
CC(C)OC(=O)Nc1cnc2[nH]c(-c3cccc(N)c3)nc2c1 [Example 5-1, [2-(3-Amino-phenyl)-3H-imidazo[4,5-b]pyridin-6-yl]-carbamic acid isopropyl ester]	10 to 500	100 to 9000
CC(=O)Nc1cccc(-c2cc3cc(NC(=O)OC(C)C)cnc3[nH]2)c1 [Example 9-20, [2-(3-Acetylamino-phenyl)-1H-pyrrolo[2,3-b]pyridin-5-yl]-carbamic acid isopropyl ester]	10 to 500	100 to 9000
CCCOC(=O)Nc1cnc2nc(-c3ccccc3)[nH]c2c1 [Example 1-14, (2-Phenyl-1H-imidazo[4,5-b]pyridin-6-yl)-carbamic acid propyl ester]	10 to 500	100 to 9000
C=C(C)C(C)OC(=O)Nc1cnc2[nH]c(-c3ccccc3)nc2c1 (centres unmarked) [Example 1-22, (2-Phenyl-3H-imidazo[4,5-b]pyridin-6-yl)-carbamic acid 1,2-dimethyl-allyl ester]	10 to 500	100 to 9000
CC(C)OC(=O)Nc1cnc2[nH]c(-c3cccc(S(C)(=O)=O)c3)nc2c1 [Example 8-2, [2-(3-Methylsulfonyl-phenyl)-3H-imidazo[4,5-b]pyridin-6-yl]-carbamic acid isopropyl ester]	10 to 500	100 to 9000
COCC(COC)NC(=O)c1cccc(-c2nc3cc(NC(=O)OC(C)C)cnc3[nH]2)c1 [Example 11-2, {2-[3-(2-Methoxy-1-methoxymethyl-ethylcarbamoyl)-phenyl]-3H-imidazo[4,5-b]pyridin-6-yl}-carbamic acid isopropyl ester]	10 to 500	100 to 9000
CC(=O)Nc1cccc(-c2nc3cc(NC(=O)OC(C)C)cnc3[nH]2)c1 [Example 6-1, [2-(3-Acetylamino-phenyl)-3H-imidazo[4,5-b]pyridin-6-yl]-carbamic acid isopropyl ester]	39	791
CC(C)OC(=O)Nc1cnc2[nH]c(-c3ccc(N)cc3)nc2c1 [Example 5-2, [2-(4-Amino-phenyl)-3H-imidazo[4,5-b]pyridin-6-yl]-carbamic acid isopropyl ester]	10 to 500	100 to 9000
O=C(Nc1cnc2[nH]c(-c3ccccc3)nc2c1)OC1CCC1 [Example 1-17, (2-Phenyl-3H-imidazo[4,5-b]pyridin-6-yl)-carbamic acid cyclobutyl ester]	10 to 500	100 to 9000
